From ChEMBL document CHEMBL5252515, “Discovery of 6-Amino-2-{[(1S)-1-methylbutyl]oxy}-9-[5-(1-piperidinyl)pentyl]-7,9-dihydro-8H-purin-8-one (GSK2245035), a Highly Potent and Selective Intranasal Toll-Like Receptor 7 Agonist for the Treatment of Asthma” (J Med Chem, 2016) come the findings set out here.

Format in all cases: cell-based
For experiment [1], the target named is T1, Toll-like receptor 7 (Homo sapiens, UniProt Q9NYK1).
T1 sequence (Q9NYK1 whole entry): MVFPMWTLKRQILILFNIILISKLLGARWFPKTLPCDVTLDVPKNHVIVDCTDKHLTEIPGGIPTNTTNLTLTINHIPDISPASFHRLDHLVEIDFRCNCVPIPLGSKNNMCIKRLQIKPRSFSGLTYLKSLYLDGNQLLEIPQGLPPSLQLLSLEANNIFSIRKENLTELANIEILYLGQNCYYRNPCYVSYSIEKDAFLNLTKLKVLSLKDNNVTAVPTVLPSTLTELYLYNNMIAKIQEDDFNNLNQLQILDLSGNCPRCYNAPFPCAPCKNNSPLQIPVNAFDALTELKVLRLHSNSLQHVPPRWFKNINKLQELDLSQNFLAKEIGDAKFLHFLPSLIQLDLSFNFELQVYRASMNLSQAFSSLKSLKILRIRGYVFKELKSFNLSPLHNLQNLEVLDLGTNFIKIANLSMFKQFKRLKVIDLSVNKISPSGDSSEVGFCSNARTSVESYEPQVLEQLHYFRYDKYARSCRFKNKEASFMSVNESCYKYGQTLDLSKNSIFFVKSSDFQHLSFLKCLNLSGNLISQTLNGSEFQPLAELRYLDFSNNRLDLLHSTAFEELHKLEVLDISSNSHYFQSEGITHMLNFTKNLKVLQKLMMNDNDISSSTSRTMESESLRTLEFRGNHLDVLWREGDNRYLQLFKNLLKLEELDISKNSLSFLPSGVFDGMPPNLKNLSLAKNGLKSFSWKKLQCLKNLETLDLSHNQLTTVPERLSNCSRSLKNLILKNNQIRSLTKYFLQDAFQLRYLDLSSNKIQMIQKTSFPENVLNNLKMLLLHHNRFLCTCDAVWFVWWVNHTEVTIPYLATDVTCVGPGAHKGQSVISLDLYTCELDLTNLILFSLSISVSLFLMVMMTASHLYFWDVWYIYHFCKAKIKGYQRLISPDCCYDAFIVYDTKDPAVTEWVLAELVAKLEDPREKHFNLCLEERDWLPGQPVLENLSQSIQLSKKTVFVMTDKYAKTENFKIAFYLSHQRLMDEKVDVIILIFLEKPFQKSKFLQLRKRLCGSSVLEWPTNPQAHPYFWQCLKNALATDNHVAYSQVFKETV
Kind of experiment: Agonist activity at TLR7 in human PBMC assessed as IFN-alpha production after 24 hrs by electrochemiluminescence assay.

For experiment [2], the target named is T1, Toll-like receptor 7. Put plainly: Agonist activity at TLR7 in human PBMC assessed as TNF-alpha production after 24 hrs by electrochemiluminescence assay.
In experiment [3] the target is T1, Toll-like receptor 7. Kind of experiment: Agonist activity at TLR7 in cryopreserved human PBMC assessed as IFN-alpha production after 24 hrs by MSD assay.

Molecules are shown by their SMILES.

Take `CCCCOc1nc(N)c2[nH]c(=O)n(CCCCN3CCCCC3)c2n1`: the EC50 in experiment [1] is 6.31 nM; in experiment [2], 6310 nM.
For `CCCCOc1nc(N)c2[nH]c(=O)n(CCCCCCN3CCCCC3)c2n1` the same measures were 1.58 nM and 2000 nM.
Consider `CCCCOc1nc(N)c2[nH]c(=O)n(CCCCCC3CCOCC3)c2n1`, for which, in experiment [3], the EC50 was 50.1 nM.
In the case of `CCCCOc1nc(N)c2[nH]c(=O)n(CCCCC3CCCNC3)c2n1` (stereo not given), the EC50 was 2.51 nM in experiment [1] and 1000 nM in experiment [2].
`CCCCOc1nc(N)c2[nH]c(=O)n(CCCCCCC3CCOCC3)c2n1`: the EC50 in experiment [3] was 794 nM.
Regarding `CCCCOc1nc(N)c2[nH]c(=O)n(CCCCN3CCN(C(C)C)CC3)c2n1`, the values for the EC50 in experiment [1] and in experiment [2] were 2.51 nM and 6310 nM, respectively.
As to `Nc1nc(OC2CCCC2)nc2c1[nH]c(=O)n2CCCCN1CCCCC1`, the values for the EC50 in experiment [1] and in experiment [2] were 1000 nM and 12600 nM, respectively.
For `CCCCOc1nc(N)c2[nH]c(=O)n(CCCCC3CCNCC3)c2n1`, the EC50 in experiment [1] was 0.631 nM; in experiment [2] it was 631 nM.
For `CCC[C@H](C)Oc1nc(N)c2[nH]c(=O)n(CCCCN3CCCCC3)c2n1` the same measures were 0.794 nM and 2510 nM.
With `CCCCOc1nc(N)c2[nH]c(=O)n(CCCCCN3CCCCC3)c2n1`, the EC50 in experiment [1] was 7.94 nM; in experiment [2], 5010 nM.
`CCCCOc1nc(N)c2[nH]c(=O)n(CC3CCOCC3)c2n1`: the EC50 in experiment [3] is 200 nM.
For the compound `CCC[C@H](C)Oc1nc(N)c2[nH]c(=O)n(CCCCC3CCOCC3)c2n1`, the EC50 is 39.8 nM in experiment [1] and 126 nM in experiment [2].
For the compound `CCCCOc1nc(N)c2[nH]c(=O)n(CCCCC3CCCO3)c2n1` (stereo not given), the half-maximal effective concentration (EC50) in experiment [3] is 158 nM.
In the case of `CCCC[C@H](C)Oc1nc(N)c2[nH]c(=O)n(CCCCN3CCCCC3)c2n1`, the EC50 in experiment [1] was 0.631 nM; in experiment [2] it was 2510 nM.
In the case of `CCCCOc1nc(N)c2[nH]c(=O)n(CCC3CCOCC3)c2n1`, the EC50 in experiment [3] was 200 nM.
On to `CCCCOc1nc(N)c2[nH]c(=O)n(CCCCN3CCOCC3)c2n1`, for which the EC50 in experiment [1] was 200 nM; in experiment [2], 3980 nM.
On to `CCCCOc1nc(N)c2[nH]c(=O)n(CCCCC3CCCCO3)c2n1` (stereo not given), for which, in experiment [3], the EC50 was 316 nM.
For `CCCCOc1nc(N)c2[nH]c(=O)n(CCCCC3CCOCC3)c2n1`, in experiment [3], the half-maximal effective concentration (EC50) was 100 nM.
As for `CCCCOc1nc(N)c2[nH]c(=O)n(CCCCC3CCCOC3)c2n1` (stereo not given), the EC50 in experiment [3] is 39.8 nM.
`CCCCOc1nc(N)c2[nH]c(=O)n(CCCCC3CCOC3)c2n1` (stereo not given): the EC50 in experiment [3] is 63.1 nM.
Consider `CCCCOc1nc(N)c2[nH]c(=O)n(CCCCN3CCCCCC3)c2n1`, for which the EC50 in experiment [1] was 1.58 nM; in experiment [2], 6310 nM.
As for `CCCCOc1nc(N)c2nc(O)n(Cc3ccccc3)c2n1`, the EC50 in experiment [3] was 126 nM.
`CC[C@H](C)Oc1nc(N)c2[nH]c(=O)n(CCCCCN3CCCCC3)c2n1`: the results for the EC50 in experiment [1] and in experiment [2] were 0.501 nM and 10000 nM, respectively.
With `CCCCOc1nc(N)c2[nH]c(=O)n(CCCC3CCOCC3)c2n1`, in experiment [3], the EC50 was 63.1 nM.
For `CCCCOc1nc(N)c2[nH]c(=O)n(CCCCN3CCCC3)c2n1`, the concentration giving a half-maximal response (EC50) in experiment [1] is 20 nM; in experiment [2], 15800 nM.
With `CC(C)Oc1nc(N)c2[nH]c(=O)n(CCCCCN3CCCCC3)c2n1`, the half-maximal effective concentration (EC50) in experiment [1] is 1 nM; in experiment [2] it was 12600 nM.
Take `CCCCOc1nc(N)c2[nH]c(=O)n(CCCCC3CCN(C(C)C)CC3)c2n1`: the EC50 in experiment [1] is 0.794 nM; in experiment [2] it was 6310 nM.
With `CCCCOc1nc(N)c2nc(O)n(CCCN3CCCCC3)c2n1`, in experiment [3], the EC50 was 316 nM.
In the case of `CCCCOc1nc(N)c2[nH]c(=O)n(CCN3CCCCC3)c2n1`, the concentration giving a half-maximal response (EC50) in experiment [3] is 2510 nM.

In general, EC50 refers to the concentration that produces a half-maximal response.
